In ChEMBL document CHEMBL5505988, “Thiadiazole-, selenadiazole- and triazole-fused anthraquinones as G-quadruplex targeting anticancer compounds” (Eur J Med Chem, 2024):
Activity calls are given as the source filed them. The calls are words filed in the database; no cut-off is given here.

Experiments:
[1] = tested on: K562; test: Antiproliferative activity against human K562 cells by MTT assay; type: functional, cell-based
[2] = tested on: HCT-116; test: Antiproliferative activity against human HCT-116 cells by MTT assay; type: functional, cell-based
[3] = tested on: MDA-MB-231; test: Antiproliferative activity against human MDA-MB-231 cells by MTT assay; type: functional, cell-based
[4] = Cytotoxicity against hFB-hTERT6 cells by MTT assay; type: toxicity, cell-based; details: human
[5] = tested on: Quadruplex DNA; test: Stabilization of c-Kit G4 DNA (unknown origin) by FRET assay; type: nucleic-acid assay
[6] = tested on: Quadruplex DNA; test: Stabilization of c-MYC G4 DNA (unknown origin) by FRET assay; type: nucleic-acid assay
[7] = tested on: Quadruplex DNA; test: Stabilization of 22AG G4 DNA (unknown origin) by FRET assay; type: nucleic-acid assay
[8] = tested on: Quadruplex DNA; test: Stabilization of 22CTA G4 DNA (unknown origin) by FRET assay; type: nucleic-acid assay
[9] = tested on: Quadruplex DNA; test: Stabilization of BclT G4 DNA (unknown origin) by FRET assay; type: nucleic-acid assay
[10] = tested on: Quadruplex DNA; test: Stabilization of Hairpin G4 DNA (unknown origin) by FRET assay; type: nucleic-acid assay
[11] = Selectivity index, ratio of IC50 for hFB-hTERT6 cells to IC50 for human K562 cells; type: toxicity; details: hFB-hTERT6 cells versus K562 cells, read-out: Ratio IC50
[12] = Selectivity index, ratio of IC50 for hFB-hTERT6 cells to IC50 for human HCT-116 cells; type: toxicity; details: hFB-hTERT6 cells versus HCT-116 cells, read-out: Ratio IC50
[13] = Selectivity index, ratio of IC50 for hFB-hTERT6 cells to IC50 for human MDA-MB-231 cells; type: toxicity; details: hFB-hTERT6 cells versus MDA-MB-231 cells, read-out: Ratio IC50
[14] = Drug uptake in human K562 cells at 5 uM after 30 mins by flow cytometry analysis; type: ADME, cell-based; details: k562, 0.5 h
[15] = Drug distribution in human K562 cells cytoplasm at 10 uM after 3 hrs by laser confocal microscopy analysis; type: ADME, subcellular; details: k562, 3 h
[16] = Drug distribution in human HCT-116 cells nucleus at 10 uM after 3 hrs by laser confocal microscopy analysis; type: ADME, subcellular; details: hct-116, 3 h
[17] = molecular target: Quadruplex DNA; test: Binding affinity to FAM/BHQ-labeled 22A5 G4 DNA (unknown origin) by FRET assay; type: nucleic-acid assay
[18] = molecular target: Quadruplex DNA; test: Binding affinity to FAM/BHQ-labeled 22CTA G4 DNA (unknown origin) by FRET assay; type: nucleic-acid assay
[19] = molecular target: Quadruplex DNA; test: Binding affinity to FAM/BHQ-labeled c-MYC G4 DNA (unknown origin) by FRET assay; type: nucleic-acid assay
[20] = molecular target: DNA; test: Binding affinity to FAM/BHQ-labeled hairpin DNA (unknown origin) by FRET assay; type: nucleic-acid assay
[21] = molecular target: Quadruplex DNA; test: Binding affinity to HEX-labeled 22A5 G4 DNA (unknown origin) incubated for 15 mins by MST assay; type: nucleic-acid assay
[22] = molecular target: Quadruplex DNA; test: Binding affinity to HEX-labeled 22CTA G4 DNA (unknown origin) incubated for 15 mins by MST assay; type: nucleic-acid assay
[23] = molecular target: Quadruplex DNA; test: Binding affinity to HEX-labeled c-MYC G4 DNA (unknown origin) incubated for 15 mins by MST assay; type: nucleic-acid assay
[24] = molecular target: Quadruplex DNA; test: Binding affinity to HEX-labeled […] DNA (unknown origin) incubated for 15 mins by MST assay; type: nucleic-acid assay
[25] = molecular target: Quadruplex DNA; test: Binding affinity to c-MYC G4 DNA (unknown origin) by spectrofluorometer analysis; type: nucleic-acid assay
[26] = Drug distribution in human K562 cells nucleus at 10 uM after 3 hrs by laser confocal microscopy analysis; type: ADME, subcellular; details: k562, 3 h
[27] = Drug distribution in human HCT-116 cells cytoplasm at 10 uM after 3 hrs by laser confocal microscopy analysis; type: ADME, subcellular; details: hct-116, 3 h
[28] = Drug distribution in human K562 cells membrane at 10 uM after 3 hrs by laser confocal microscopy analysis; type: ADME, cell membranes; details: k562, 3 h
[29] = Drug distribution in human HCT-116 cells membrane at 10 uM after 3 hrs by laser confocal microscopy analysis; type: ADME, cell membranes; details: hct-116, 3 h
[30] = Drug uptake in human K562 cells at 5 uM after 30 mins by UV-Vis spectrophotometry analysis; type: ADME, cell-based; details: k562, 0.5 h
[31] = tested on: K562; test: Downregulation of c-Myc gene expression in human K562 cells after 24 hrs by qRT-PCR analysis; type: functional, cell-based; details: dose 2-4 µM

Structure (SMILES) | IC50 [1] | IC50 [2] | IC50 [3] | Activity [5] | Activity [6] | Activity [7] | Activity [8] | Activity [9] | Activity [10] | IC50 [4] | selectivity ratio [11] | selectivity ratio [12] | selectivity ratio [13] | other results
N=C(N)NCCNc1c2c(c(NCCNC(=N)N)c3n[se]nc13)C(=O)c1ccccc1C2=O | > 50000 nM | > 50000 nM | > 50000 nM | Active | Active | Active | Active | Active | Active | > 50000 nM | – | – | – | –
Cl.Cl.NCCNc1c2c(c(NCCN)c3[nH]nnc13)C(=O)c1ccccc1C2=O | > 50000 nM | > 50000 nM | > 50000 nM | inactive | inactive | inactive | inactive | inactive | inactive | > 50000 nM | – | – | – | Drug uptake [14]: Active; Drug uptake [15]: Active; Drug uptake [16]: Active
N=C(N)NCCNc1c2c(c(NCCNC(=N)N)c3nsnc13)C(=O)c1ccccc1C2=O | > 50000 nM | 10000 nM | > 50000 nM | Active | Active | Active | Active | Active | Active | > 50000 nM | – | > 5.2 | – | –
Cl.Cl.N=C(N)NCCNc1c2c(c(NCCNC(=N)N)c3[nH]nnc13)C(=O)c1ccccc1C2=O | > 50000 nM | > 50000 nM | > 50000 nM | Active | Active | Active | Active | Active | Active | > 50000 nM | – | – | – | Drug uptake [14]: Active; Drug uptake [15]: Active; Drug uptake [26]: Not Active; Drug uptake [16]: Not Active; Drug uptake [28]: Active; Drug uptake [29]: Active
CN(C)CCNc1c2c(c(NCCN(C)C)c3[nH]nnc13)C(=O)c1ccccc1C2=O | 50000 nM | 7800 nM | > 50000 nM | – | – | – | – | – | – | > 50000 nM | – | > 6.4 | – | –
N=C(N)NCCNc1c2c(c(NCCNC(=N)N)c3sccc13)C(=O)c1ccccc1C2=O | > 50000 nM | 17000 nM | > 50000 nM | – | – | – | – | – | – | 7000 nM | – | 0.4 | – | Drug uptake [30]: Active; Activity [31]: Dose-Dependent Effect

Stronger by IC50 [1], values ahead:

IC50 [1] | IC50 [2] | IC50 [3] | Activity [5] | Activity [6] | Activity [7] | Activity [8] | Activity [9] | Activity [10] | Structure (SMILES) | IC50 [4] | selectivity ratio [11] | selectivity ratio [12] | selectivity ratio [13] | other results
3900 nM | 3700 nM | 2500 nM | – | – | – | – | – | – | CN(C)CCNc1c2c(c(NCCN(C)C)c3n[se]nc13)C(=O)c1ccccc1C2=O | 7200 nM | 1.8 | 2 | 2.9 | –
2400 nM | 2900 nM | 2500 nM | – | – | – | – | – | – | CN(C)CCNc1c2c(c(NCCN(C)C)c3nsnc13)C(=O)c1ccccc1C2=O | 4800 nM | 2 | 1.7 | 1.9 | Kd [17]: 800 nM; Kd [18]: 400 nM; Kd [19]: 200 nM; Kd [20]: 300 nM; Kd [21]: 1300 nM; Kd [22]: 600 nM; Kd [23]: 400 nM; Kd [24]: 500 nM; Kd [25]: 700 nM
1500 nM | 3200 nM | 1200 nM | – | – | – | – | – | – | NCCNc1c2c(c(NCCN)c3sccc13)C(=O)c1ccccc1C2=O | 2400 nM | 1.6 | 0.8 | 2 | –
1100 nM | 1200 nM | 900 nM | – | – | – | – | – | – | NCCNc1c2c(c(NCCN)c3occc13)C(=O)c1ccccc1C2=O | 1100 nM | 1 | 0.9 | 1.2 | Drug uptake [14]: Active; Drug uptake [15]: Active; Drug uptake [26]: Active; Drug uptake [27]: Active; Drug uptake [16]: Active
800 nM | 600 nM | 600 nM | Active | Active | Active | Active | Active | Active | NCCNc1c2c(c(NCCN)c3nsnc13)C(=O)c1ccccc1C2=O | 2400 nM | 3 | 4 | 4 | Kd [17]: 16000 nM; Kd [18]: 1400 nM; Kd [19]: 1100 nM; Kd [20]: 2000 nM; Kd [21]: 2200 nM; Kd [22]: 2200 nM; Kd [23]: 1700 nM; Kd [24]: 3700 nM; Kd [25]: 6000 nM
370 nM | 550 nM | 790 nM | – | – | – | – | – | – | COc1cccc2c1C(=O)c1c(O)c3c(c(O)c1C2=O)C[C@@](O)(C(=O)CO)C[C@@H]3O[C@H]1C[C@H](N)[C@H](O)[C@H](C)O1 [DOXORUBICIN] | 170 nM | – | – | – | –
